According to US20140378408A1, “NUCLEOSIDE 5'-PHOSPHOROTHIOATE ANALOGUES AND USES THEREOF” (BAR-ILAN UNIVERSITY, an Israeli University, priority 2012, published 2014):
Where two headings read alike, the source gives them in different places.

Key:
Aβ28-Cu^+ complex = target: T1, Aβ28-Cu^+ complex (Homo sapiens, UniProt P05067); experiment: Titration of Aβ28-Cu^+ complex by chelators monitored by 1H-NMR; conditions: 6 eq chelator, 0.8 mM Aβ28-Cu^+, pD 7
T1 construct: we first studied Aβ28, as a more soluble fragment of Aβ40; purchased Sigma-Aldrich
T1 sequence (P05067 672-699 limits assumed, one chain of several): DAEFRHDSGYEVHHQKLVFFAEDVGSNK

Aβ40-Cu^2+ aggregates = target: T2, Aβ40-Cu^2+ aggregates (Homo sapiens, UniProt P05067); experiment: DLS, size reduction of Aβ40-Cu^2+ aggregates; conditions: aggregate alone 1836 nm; 25 μM Aβ40-Cu^2+, pH 6.6
T2 construct: purchased GL-Biochem (Shanghai)
T2 sequence (P05067 672-711 limits assumed): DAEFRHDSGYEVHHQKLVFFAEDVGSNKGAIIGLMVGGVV
Method: PBS buffer, Aβ40, chelator, Zn(NO3)2, and Cu(NO3)2 solutions were filtered through a […] PVDF syringe filter. 496 μM Aβ40 solution in 10 mM PBS (pH 7.4) and 2 mM Zn(NO3)2 solution were mixed to obtain 200 μM Aβ40-Zn^2+ (1:1 ratio) of a cloudy solution. Similarly, 2 mM Cu(NO3)2 solution was added to 496 μM Aβ40 in 10 mM PBS (pH 6.6). Aβ40-Zn^2+/Cu^2+ (10 μl) solution was transferred to Eppendorf tubes containing 10 mM PBS buffer (64 or 67 μl) followed by the addition of 3 and 6 eq of 2 mM nucleotide (6 or 3 μl) solution and incubation for 45 min at RT. The resulting mixture was incubated for another 30 min at RT and DLS data were then collected in a 70 μl disposable cuvette. The final sample concentrations were 25 μM Aβ40, 25 μM Zn^2+ or Cu^2+, and 150 or 75 μM nucleotide.
Monomeric Aβ40 was incubated with either Cu^2+ or Zn^2+ for 45 min to form a 1:1 peptide metal-ion complex. […] For the Aβ40-Zn^2+ particles the instrument readings indicated a different size distribution. […] We evaluated the capacity of the phosphorothioate analogues to dissolve Aβ40-Cu^2+ or Zn^2+ aggregates, as compared to EDTA and clioquinol known for their ability to dissolve Aβ-M^2+ aggregates (Ritchie et al., 2003; Huang et al., 1997). The reduction of dH of Aβ40-Cu^2+ aggregates by EDTA, clioquinol, or tested compounds was compared to the dH of Aβ-Cu^2+ aggregate itself (FIG. 5A). In addition, the efficacy of the chelators ATP-γ-S, ADP-β-S, APCPP-γ-S and GDP-β-S to resolubilize Aβ40-Cu^2+ and Aβ40-Zn^2+ is described in FIGS. 5B and 5C relative to EDTA and clioquinol. EDTA efficiency in reducing Aβ particle size is considered as 100%.

Aβ40-Zn^2+ aggregates = target: T3, Aβ40-Zn^2+ aggregates (Homo sapiens, UniProt P05067); experiment: DLS, re-solubilization of Aβ40-Zn^2+ aggregates; conditions: EDTA = 100%, clioquinol value refers to FIG. 5B, 5C
T3 construct: Monomeric Aβ40 was incubated with either Cu^2+ or Zn^2+; purchased GL-Biochem (Shanghai)
T3 sequence (P05067 672-711 limits assumed): as above

cortical neurons = experiment: Neuroprotection of cultured cortical neurons exposed to FeSO4 or FeSO4/H2O2; format: cell-based; conditions: for protection: co-application with FeSO4 3 μM
Method: FIGS. 10A-10B show the neuroprotective effect of ATP-γ-S and GDP-β-S (0.2-200 μM, t=24 h) as evaluated by MTT production in cortical neurons exposed for 24 h to either FeSO4 at final concentration of 3 μM (10A); or both FeSO4 (3 μM) and H2O2 (100 μM) (10B). The results shown are the mean±SEM of three independent experiments in quadruplicate.
Cultured cortical neurons in 96-well plates were treated with different concentrations of FeSO4, or hydrogen peroxide and FeSO4, for 24 h at 37° C. Following exposure to various insults, the cells were treated with ATP-γ-S and GDP-β-S as described. Cells were subsequently incubated for a further 18-24 h as indicated before being assessed for viability measures. Neurons were treated with ATP-γ-S and GDP-β-S at three concentrations ([…]) simultaneously with 1.5, 3 or 6 μM FeSO4 for 24 h. Following 24 h incubation in the presence of both FeSO4 and ATP-γ-S and GDP-β-S cell viability measures were assessed by XTT assay. All experiments were performed in triplicate.
FeSO4 induced a concentration-dependent decrease in cell viability as assessed by XTT assay and morphological assessment following 24 h of exposure (FIG. 9). The neuroprotective effect of ATP-γ-S and GDP-β-S (due to iron chelation) was evaluated in cortical neurons exposed to FeSO4 for 24 h (FIG. 10).

TNAP = target: T4, TNAP (Homo sapiens, UniProt P05186); experiment: Hydrolysis by TNAP; format: in vitro ADME; conditions: 1 h
T4 sequence (P05186 18-501): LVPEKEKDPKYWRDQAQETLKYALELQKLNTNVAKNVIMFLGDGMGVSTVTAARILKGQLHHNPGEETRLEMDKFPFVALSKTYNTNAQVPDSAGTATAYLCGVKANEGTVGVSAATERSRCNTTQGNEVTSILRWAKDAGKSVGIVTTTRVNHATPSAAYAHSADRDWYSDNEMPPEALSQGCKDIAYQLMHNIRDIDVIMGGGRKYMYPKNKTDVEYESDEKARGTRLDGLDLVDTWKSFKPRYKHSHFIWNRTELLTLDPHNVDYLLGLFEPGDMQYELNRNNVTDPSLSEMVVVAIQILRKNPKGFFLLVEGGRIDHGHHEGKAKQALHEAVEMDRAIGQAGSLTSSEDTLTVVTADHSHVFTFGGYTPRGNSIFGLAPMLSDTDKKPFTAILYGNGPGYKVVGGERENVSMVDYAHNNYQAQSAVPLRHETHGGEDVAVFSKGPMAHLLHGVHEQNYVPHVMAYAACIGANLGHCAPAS
Excerpt: The metabolic stability of APPCCl2P-α-S (isomer A) and APCPP-γ-S was further proven by their resistance to enzymatic hydrolysis by TNAP.

[1] = literature; cited from earlier work
primary neurons = experiment: Protection of primary neuron culture against Aβ42 insult (trypan blue count); format: cell-based
Method: Primary neuron cells were cultured in 96 wells plate (95×10^4 per well). After 24 h the cells were treated with 50 μM Aβ42 and various concentrations of APCPP-γ-S (0.04-25 μM) for 48 h. Cell viability was measured by dyeing the cells with trypan blue and counts of the vital cells. The results shown are the mean±S.D of three independent experiments in triplicate (*P<0.05, vs. Aβ42 treatment).
Primary neurons cells were cultured in 96 wells plate (95×10^4 per well). […] Cell viability was measured by dyeing the cells with trypan blue and counts the vital cells. The results shown are the mean±S.D of three independent experiments in triplicate (*P<0.05, **P<0.01 vs. Aβ42 treatment).
In this study, the neuroprotective activity of APCPP-γ-S in neuronal cells exposed to toxic Aβ42 was evaluated. At first we measured the number of the viable neuronal cells after treatment with Aβ42 (5-50 μM) (FIG. 11). At 50 μM Aβ42, 50% of the neuronal culture remained vital. Next, we measured the protective effect of APCPP-γ-S: primary neurons were treated with APCPP-γ-S (0.04-25 μM) and 50 μM Aβ42 for 48 h.

[2] = ESR OH radical assay, Fe^2+/H2O2 Fenton system; conditions: N/A = minimal radical production exceeds 10%
[3] = ESR OH radical assay, Cu^+/H2O2 Fenton system; conditions: N/A = minimal radical production exceeds 10%
[4] = literature; cited from earlier work; remark: listed apart in the source
PC12 cells [5] = experiment: Inhibition of Fe(II)-induced ROS formation in PC12 cells (DCFH-DA); format: cell-based; conditions: PC12 cells, FeSO4 0.16 μM, 1 h, DCFH-DA; read-out: IC50 inhibition of ROS formation
Method: In this study, nucleoside 5′-phosphorothioate analogues were explored as inhibitors of Fe(II)-induced oxidative stress in PC12 cells used as a neuronal model. Reduction of ROS production in PC12 cells by each one of the tested analogues was measured by DCFH-DA, a radical sensitive indicator. After DCFH-DA was removed, the tested analogue was added to the cells at a final concentration of 0.2-200 μM. Oxidation was initiated by the addition of FeSO4 (0.16 μM) to the wells. The plates were incubated for 1 h at 37° C., during which the absorbance was read by a Tecan fluorometer at 485/530 nm.

PC12 cells [6] = experiment: Stability of nucleotides in PC12 cells
[7] = OH radical inhibition, Fe^2+/H2O2 system, earlier work; cited from earlier work
[8] = Table 2, neuroprotection of primary neurons exposed to FeSO4, read-out: IC50
[9] = co-application of FeSO4 3 μM and H2O2 100 μM, read-out: IC50 neuroprotection
[10] = cortical neurons, FeSO4 3 μM, 24 h, read-out: IC50 neuroprotection

Compound	effect on Aβ28-Cu^+ 1H-NMR spectrum (Aβ28-Cu^+ complex)	dH (particle size) of Aβ40-Cu^2+ after chelator (Aβ40-Cu^2+ aggregates) [nm]	log K of Cu^2+ complex [1]	IC50 (cortical neurons; [8]) [nM]	IC50 (cortical neurons; [9]) [nM]	protection (cortical neurons; 24 h) [%]	IC50 (cortical neurons; [10]) [nM]	IC50 (PC12 cells [5]) [nM]	also measured
Oc1c(I)cc(Cl)c2cccnc12 [Clioquinol, 5-chloro-7-iodoquinolin-8-ol]	slightly sharpened, yet, no signal pattern emerged	127							efficacy in resolubilizing aggregates relative to EDTA (Aβ40-Zn^2+ aggregates): ca. 75 % of EDTA efficacy
Nc1ncnc2c1ncn2[C@@H]1O[C@H](COP(=O)(O)OP(=O)(O)OP(=O)(O)O)[C@@H](O)[C@H]1O [ATP, adenosine triphosphate]			6.34						IC50 (cortical neurons; Cortical neurone, Table 2, neuroprotection of primary neurons exposed to FeSO4, read-out: IC50): 30000 ± 2100 nM; Hydrolysis by TNAP (TNAP): 100%; neuronal cells maintained (primary neurons; at 25 μM, 50 μM Aβ42, 48 h): 45%
O=C(O)CN(CCN(CC(=O)O)CC(=O)O)CC(=O)O [EDTA, ethylenediamine tetraacetic acid]			18.8						IC90 [2]: 98 ± 1 µM; IC90 [3]: 110 ± 7 µM; log K of Zn^2+ complex [4]: 16.5
Nc1nc2c(ncn2[C@@H]2O[C@H](COP(=O)(O)OP(O)(O)=S)[C@@H](O)[C@H]2O)c(=O)[nH]1 [GDP-β-S, guanosine 5′-[β-thio]diphosphate]	partial recovery of Aβ28 aromatic signals			80 ± 3	4000	130	8	10000	fold more stable in PC12 cells than parent nucleotide (GDP, ADP) (PC12 cells [6]): 4.5 fold
Nc1ncnc2c1ncn2[C@@H]1O[C@H](COP(=O)(O)OP(=O)(O)OP(O)(O)=S)[C@@H](O)[C@H]1O [ATP-γ-S, Adenosine 5′-[γ-thio]-triphosphate]		110		10 ± 8	1000	100	10	180	IC50 (cortical neurons; primary cortical neuronal cells, read-out: IC50 protection from damage caused by FeSO4): 10 nM; times more active than ATP [7]: 100; times more active than Trolox [7]: 20; IC50 (primary neurons; 50 μM Aβ42, 48 h, read-out: concentration that maintained 50% of neuronal cells): 800 nM; IC50 (primary neurons; primary neurons, read-out: IC50 protection from Aβ42 insult): 800 nM
